Measured values published in PMC11314561, “Design and Synthesis of Novel Aminoindazole-pyrrolo[2,3-b]pyridine Inhibitors of IKKα That Selectively Perturb Cellular Non-Canonical NF-κB Signalling” (Molecules, 2024).
Converted amounts (≈) assume the structure as drawn.

Tests used:
[1] = tested on: IKKα-mediated p100 phosphorylation (Ser866/870) in U2OS cells; assay: FCS-stimulated p100 phosphorylation (Ser866/870), Western blotting; assay type: cell-based; conditions: Homo sapiens, 1 h pre-treatment, FCS 10% 4 h
Method: To assess the translation of the biochemical potencies and selectivities described above to a cell-based setting, exemplars from the series were initially examined for inhibitory action against IKKs in the U2OS osteosarcoma cell line. This cell type was utilised to represent cells with a proliferative phenotype dependent on the constitutively activated IKKα-mediated non-canonical NF-κB pathway. Compounds 5r [SU1261]
(§1) U2OS cells were cultured in McCoy’s 5A Modified Medium, and PC-3M-Luc-C6 prostate cancer cells were cultured in Minimum Essential Medium (MEM), each containing 10% (v/v) Foetal Calf Serum (FCS), L-glutamine ([…]), and penicillin/streptomycin (250 units/mL; 100 μg/mL) and incubated in a humidified atmosphere at 37 °C with 5% (v/v) CO2. Cells were grown to near confluence and prior to experimentation rendered quiescent by serum deprivation for 24 h.
For examination of potential effects of compound on non-canonical NF-κB signalling, cells were exposed to vehicle (DMSO; 0.03–0.05% (v/v)) or increasing concentrations of compounds (0.01–30 µM) for 1 h prior to treatment with FCS (10% (v/v); for U2OS cells) or LTα1β2 (20 ng/mL; for PC-3M cells) for 4 h. The status of p-p100 (Ser 866/870) in whole-cell extracts prepared from 12-well plates was assessed by Western blotting, as described in McKenzie et al.. […] Thereafter, p52 and RelB status in crude nuclear extracts normalised for protein amounts were assessed by Western blotting.
(§2) Each figure/panel of Western blotting data represents one of at least three separate experiments. Western blots were scanned and imaged using Adobe Photoshop 5.0.2 software and polypeptide bands were semi-quantified by scanning densitometry using the Scion Image program. Data were normalised to fold expression/inhibition relative to ‘agonist plus vehicle’ treatment and expressed as mean ± s.e.m. […]

[2] = tested on: panel of 231 kinases; assay: Kinome profiling, summary; assay type: biochemical, human; conditions: 1 μM
From the text: We profiled three compounds from the series across the kinome (Table S1).
Ta b l e S1. The % inhibition of compounds 4, 5r [SU1261], and 6g [SU1349] against a
panel of kinase enzymes. We proϐiled three compounds from the series across 231
kinases. For SU1349, given its structural similarity with SU1261, we selected 98 from the
Tested kinase % inhibiƟon

[3] = Mouse hepatocyte intrinsic clearance and half-life; assay type: in vitro ADME; conditions: mouse CD1 hepatocytes; for half-life at 1 µM: cryopreserved pooled hepatocytes; for Mouse Hepatocyte Clearance: 1 µM
Method: Intrinsic clearance and half-life were determined using cryopreserved pooled mouse CD1 hepatocytes. Test compounds were analysed at 1 µM in Williams Media E buffer (0.01% DMSO) at a cell density of 0.5 × 10^6 cells mL^–1. Cells were incubated at 37 °C for one hour with shaking, and compound depletion was measured by LC-MS/MS at six time points (0.25, 5, 10, 20, 40, and 60 min).

[4] = Turbidimetric solubility; assay type: physicochemical; conditions: pH 7.4, aqueous buffer, kinetic from dmso stock, 0.01 M phosphate-buffered saline pH7.4
Method: Pharmacokinetic studies were contracted to Sygnature Discovery Limited. Turbidimetric Solubility was determined by diluting compound solutions (1 μM, 3 μM, 10 μM, 30 μM, 100 μM) prepared in DMSO into 0.01 M phosphate-buffered saline pH7.4. Turbidimetry was used as the endpoint by measuring absorbance at 620 nm.

[5] = tested on: p105 (Ser932) phosphorylation in PC-3M cells; assay: TNFα-stimulated p105 (Ser932) phosphorylation, Western blotting; assay type: cell-based; conditions: 0.1–10 µM
Method: as §1
To examine the potential impact of compounds on canonical NF-κB signalling, cells were then exposed to vehicle (DMSO; 0.05% (v/v)) or increasing concentrations of compounds (0.01–30 µM) for 1 h prior to treatment with TNF⍺ (20 ng/mL) for 30 min. Whole-cell extracts were prepared, and the status of IκB⍺, phospho-p65 (Ser536), p65, and phospho-p105 ([…]) was also assessed by Western blotting.
as §2, with “s.e.m. IC50 values were established by curve fitting using the Hill equation.” for “s.e.m.”

IC50 [1] [µM] | half-life at 1 µM [3] [min] | Mouse Hepatocyte Clearance [3] [μL/min/10^6 Cells] | solubility [4] [µM] | SMILES | number of kinases inhibited by >80% [2] [kinases] | effect on TNFα-stimulated p105 (Ser932) phosphorylation [5]
0.69 |  |  |  | Nc1n[nH]c2ccc(-c3ccnc4[nH]c(-c5ccccc5)cc34)cc12 [Compound 4] | 44 | 
2.87 | 36 | 38 | < 1 | Nc1n[nH]c2ccc(-c3ccnc4[nH]c(-c5cccc(OCc6ccccc6)c5)cc34)cc12 [Compound 5r [SU1261]] | 10 | no significant concentration-dependent inhibition
8.75 | 51 | 27 | 20 (≈ 8.65 µg/mL) | Nc1n[nH]c2ccc(-c3ccnc4[nH]c(-c5ccnc(OCc6ccccc6)c5)cc34)cc12 [Compound 6g [SU1349]] |  | no impact
